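Five compound concentrations were applied to cells in 96-well plates for 48 hours; endpoints were derived by simple linear interpolation of the resulting dose-response curve. GI50: concentration for 50% inhibition of growth.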 Calls of active or inactive are those of the source. No stated cut-off is given here; in the data, active = GI50 up to about 1.1 µM and inactive = higher.
What was measured:
Experiment in all cases: NCI tumour cell line growth inhibition, 48 h
[1] = tested on: A549
[2] = tested on: RPMI-8226
[3] = tested on: NCI-H226
[4] = tested on: K562
[5] = tested on: MOLT-4
[6] = tested on: SK-OV-3
[7] = tested on: 786-0
[8] = tested on: SF-268
[9] = tested on: SK-MEL-2
[10] = tested on: HL-60
[11] = tested on: LOX IMVI
[12] = tested on: CAKI-1
[13] = tested on: UACC-257
[14] = tested on: OVCAR-3
[15] = tested on: OVCAR-8
[16] = tested on: DLD-1
[17] = tested on: LXFL 529
[18] = tested on: DMS-273
[19] = tested on: DMS-114
[20] = tested on: UO-31
[21] = tested on: RXF 631
[22] = tested on: HOP-18
[23] = tested on: A498
[24] = tested on: UACC-62
[25] = tested on: SNB-19
[26] = tested on: TK-10
[27] = tested on: OVCAR-5
[28] = tested on: SK-MEL-5
[29] = tested on: SNB-78
[30] = tested on: OVCAR-4
[31] = tested on: HT-29
[32] = tested on: U-251
[33] = tested on: XF498
[34] = tested on: EKVX
[35] = tested on: SK-MEL-28
[36] = tested on: NCI-H522
[37] = tested on: NCI-H23
[38] = tested on: Malme-3M
[39] = tested on: HOP-92
[40] = tested on: HCT-116
[41] = tested on: SN12C
[42] = tested on: SNB-75
[43] = tested on: NCI-H460
[44] = tested on: CCRF-CEM
[45] = tested on: HOP-62
[46] = tested on: SF-295
[47] = tested on: KM12
[48] = tested on: SW-620
[49] = tested on: IGROV-1
[50] = tested on: HCT-15
[51] = tested on: ACHN
[52] = tested on: KM-20L2
[53] = tested on: HCC 2998
[54] = tested on: COLO 205
[55] = tested on: M14
[56] = tested on: SF-539
[57] = tested on: M19-MEL
[58] = tested on: RXF 393

COc1ccc(CC/N=C2\CCC(C(=O)NCCc3ccc(OC)c(OC)c3)N2)cc1OC (stereo not given)
GI50 [1]: > 100 µM (inactive)
GI50 [2]: > 100 µM (inactive)
GI50 [3]: > 100 µM (inactive)
GI50 [4]: > 100 µM (inactive)
GI50 [5]: > 100 µM (inactive)
GI50 [6]: > 100 µM (inactive)
GI50 [7]: > 100 µM (inactive)
GI50 [8]: > 100 µM (inactive)
GI50 [9]: > 100 µM (inactive)
GI50 [10]: > 100 µM (inactive)
GI50 [11]: > 100 µM (inactive)
GI50 [12]: > 100 µM (inactive)
GI50 [13]: > 100 µM (inactive)
GI50 [14]: > 100 µM (inactive)
GI50 [15]: > 100 µM (inactive)
GI50 [16]: > 100 µM (inactive)
GI50 [17]: > 100 µM (inactive)
GI50 [18]: > 100 µM (inactive)
GI50 [19]: > 100 µM (inactive)
GI50 [20]: > 100 µM (inactive)
GI50 [21]: > 100 µM (inactive)
GI50 [22]: > 100 µM (inactive)
GI50 [23]: > 100 µM (inactive)
GI50 [24]: > 100 µM (inactive)
GI50 [25]: > 100 µM (inactive)
GI50 [26]: > 100 µM (inactive)
GI50 [27]: > 100 µM (inactive)
GI50 [28]: > 100 µM (inactive)
GI50 [29]: > 100 µM (inactive)
GI50 [30]: > 100 µM (inactive)
GI50 [31]: > 100 µM (inactive)
GI50 [32]: > 100 µM (inactive)
GI50 [33]: > 100 µM (inactive)
GI50 [34]: > 100 µM (inactive)
GI50 [35]: > 100 µM (inactive)
GI50 [36]: > 100 µM (inactive)
GI50 [37]: > 100 µM (inactive)
GI50 [38]: > 100 µM (inactive)
GI50 [39]: > 100 µM (inactive)
GI50 [40]: > 100 µM (inactive)
GI50 [41]: > 100 µM (inactive)
GI50 [42]: > 100 µM (inactive)
GI50 [43]: > 100 µM (inactive)
GI50 [44]: > 100 µM (inactive)
GI50 [45]: > 100 µM (inactive)
GI50 [46]: > 100 µM (inactive)
GI50 [47]: > 100 µM (inactive)
GI50 [48]: > 100 µM (inactive)
GI50 [49]: > 100 µM (inactive)
GI50 [50]: > 100 µM
GI50 [51]: > 100 µM (inactive)
GI50 [52]: > 100 µM (inactive)
GI50 [53]: > 100 µM (inactive)
GI50 [54]: > 100 µM (inactive)
GI50 [55]: > 100 µM (inactive)

CC(=O)N(/N=C\c1ccc([N+](=O)[O-])cc1)c1ccccc1
GI50 [1]: > 100 µM (inactive)
GI50 [2]: > 100 µM (inactive)
GI50 [3]: > 100 µM (inactive)
GI50 [4]: > 100 µM (inactive)
GI50 [6]: > 100 µM (inactive)
GI50 [7]: > 100 µM (inactive)
GI50 [8]: > 100 µM (inactive)
GI50 [9]: > 100 µM (inactive)
GI50 [11]: > 100 µM (inactive)
GI50 [12]: > 100 µM (inactive)
GI50 [13]: > 100 µM (inactive)
GI50 [14]: > 100 µM (inactive)
GI50 [15]: > 100 µM (inactive)
GI50 [16]: > 100 µM (inactive)
GI50 [56]: > 100 µM (inactive)
GI50 [18]: > 100 µM (inactive)
GI50 [19]: 99.8 µM (inactive)
GI50 [20]: 35.9 µM (inactive)
GI50 [21]: > 100 µM (inactive)
GI50 [22]: > 100 µM (inactive)
GI50 [23]: > 100 µM (inactive)
GI50 [24]: > 100 µM (inactive)
GI50 [25]: > 100 µM (inactive)
GI50 [26]: > 100 µM (inactive)
GI50 [27]: > 100 µM (inactive)
GI50 [28]: > 100 µM (inactive)
GI50 [29]: > 100 µM (inactive)
GI50 [30]: > 100 µM (inactive)
GI50 [31]: > 100 µM (inactive)
GI50 [32]: > 100 µM (inactive)
GI50 [33]: > 100 µM (inactive)
GI50 [34]: > 100 µM (inactive)
GI50 [35]: > 100 µM (inactive)
GI50 [37]: > 100 µM (inactive)
GI50 [38]: > 100 µM (inactive)
GI50 [39]: > 100 µM (inactive)
GI50 [40]: > 100 µM (inactive)
GI50 [41]: > 100 µM (inactive)
GI50 [42]: 48.3 µM (inactive)
GI50 [43]: > 100 µM (inactive)
GI50 [44]: > 100 µM (inactive)
GI50 [45]: > 100 µM (inactive)
GI50 [46]: > 100 µM (inactive)
GI50 [47]: > 100 µM (inactive)
GI50 [48]: > 100 µM (inactive)
GI50 [49]: > 100 µM (inactive)
GI50 [57]: > 100 µM (inactive)
GI50 [50]: > 100 µM
GI50 [51]: > 100 µM (inactive)
GI50 [52]: > 100 µM (inactive)
GI50 [53]: > 100 µM (inactive)
GI50 [54]: > 100 µM (inactive)
GI50 [55]: > 100 µM (inactive)

CN(C)C(=S)/N=c1\ssc(=S)n1Cc1ccccn1
GI50 [1]: 3.85 µM (inactive)
GI50 [2]: 2.31 µM (inactive)
GI50 [3]: 6.5 µM (inactive)
GI50 [4]: 0.748 µM (active)
GI50 [5]: 3.11 µM (inactive)
GI50 [6]: 4.67 µM (inactive)
GI50 [7]: 4.24 µM (inactive)
GI50 [8]: 6 µM (inactive)
GI50 [9]: 1.94 µM (inactive)
GI50 [10]: 3.19 µM (inactive)
GI50 [11]: 5.06 µM (inactive)
GI50 [12]: 6.93 µM (inactive)
GI50 [13]: 4.1 µM (inactive)
GI50 [14]: 2.52 µM (inactive)
GI50 [15]: 4.54 µM (inactive)
GI50 [16]: 4.45 µM (inactive)
GI50 [56]: 4.49 µM (inactive)
GI50 [17]: 3.9 µM (inactive)
GI50 [18]: 1.64 µM (inactive)
GI50 [20]: 3.7 µM (inactive)
GI50 [21]: 3.7 µM (inactive)
GI50 [22]: 9.38 µM (inactive)
GI50 [23]: 4.84 µM (inactive)
GI50 [24]: 2.41 µM (inactive)
GI50 [25]: 6.55 µM (inactive)
GI50 [26]: 7.55 µM (inactive)
GI50 [27]: > 100 µM (inactive)
GI50 [28]: 3.52 µM (inactive)
GI50 [29]: 30.2 µM (inactive)
GI50 [30]: 14 µM (inactive)
GI50 [31]: 2.78 µM (inactive)
GI50 [32]: 3.89 µM (inactive)
GI50 [33]: 8.95 µM (inactive)
GI50 [34]: 3.89 µM (inactive)
GI50 [35]: 4.65 µM (inactive)
GI50 [36]: 0.859 µM (active)
GI50 [37]: 3.62 µM (inactive)
GI50 [38]: 2.49 µM (inactive)
GI50 [39]: 4.12 µM (inactive)
GI50 [40]: 2.87 µM (inactive)
GI50 [41]: 7.03 µM (inactive)
GI50 [42]: 4.48 µM (inactive)
GI50 [43]: 2.93 µM (inactive)
GI50 [44]: 10.7 µM (inactive)
GI50 [45]: 10.6 µM (inactive)
GI50 [46]: 3.8 µM (inactive)
GI50 [47]: 1.14 µM (inactive)
GI50 [48]: 2.7 µM (inactive)
GI50 [49]: 7.29 µM (inactive)
GI50 [57]: 2.36 µM (inactive)
GI50 [50]: 2.01 µM
GI50 [51]: 8.24 µM (inactive)
GI50 [52]: 1.94 µM (inactive)
GI50 [53]: 4.92 µM (inactive)
GI50 [54]: 2.75 µM (inactive)
GI50 [55]: 2.55 µM (inactive)
GI50 [58]: 3.01 µM (inactive)

Source: ChEMBL document CHEMBL1201862, “PubChem BioAssay data set” (2004)
